Reference: PubChem BioAssay AID624456 (Sanford-Burnham Center for Chemical Genomics, 2012)

System: compound stability in 1x PBS, percent remaining
Assay: compound stability in phosphate-buffered saline, ADME assay, biochemical, 1x PBS, with and without 50% ACN, set 2 (AID 624456);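 also: percent left after two days of incubation at room temperature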
[1] = measured here: stability in PBS with 50% ACN

stability | stability [1] | SMILES
89.6% | 93% | COc1ccc(OC)c(S(=O)(=O)Nc2cnc3ccccc3c2)c1
70.8% | 100% | NC(=O)C1CCN(c2nc(-c3ccc(Br)cc3)cs2)CC1
73.4% | 100% | C/C=C/Cn1c(SCCCc2ccccc2)nc2c1c(=O)[nH]c(=O)n2C
86% | 95.2% | CCc1nnc(NC(=O)c2ccc(NS(=O)(=O)c3ccccc3)cc2)s1
43.5% | 80% | Cc1cccc(-n2cnc3cc(C(=O)N4CCCCC4)ccc32)c1
92.1% | 100% | O=C(COc1ccccc1Br)NCCc1nc2ccccc2[nH]1
51.3% | 65.6% | Cc1ccc(NC(=O)CCC(=O)N/N=C/c2ccc([N+](=O)[O-])o2)cc1C
78.5% | 100% | CCCN1CNc2c(c(=O)[nH]c(=S)n2CCc2ccc(OC)c(OC)c2)C1
92.9% | 93.4% | Brc1ccc2c(c1)CN1CCCC1=N2
49.6% | 88.2% | O=C(COC(=O)C12CC3CC(CC(C3)C1)C2)NCc1ccco1
100% | 100% | O=C(O)CCC(NS(=O)(=O)c1ccc(-c2ccccc2)cc1)C(=O)O (stereo not given)
89.6% | 99.6% | COc1ccc(OC)c(-c2nnc3n2N=C(c2ccc(OC)c(OC)c2)CS3)c1
33.4% | 80.1% | CCN1CCN(c2nc3ccccc3nc2C(C#N)C(=O)OC2CCCCC2)CC1 (stereo not given)
95.7% | 100% | CC(=O)c1ccc(N2CCN(S(=O)(=O)c3ccc4c(c3)CC(=O)N4)CC2)cc1
84.8% | 100% | Cc1ccc(S(=O)(=O)NCc2ccc(C(=O)NCCN(Cc3ccccc3)C(C)C)cc2)cc1
6.53% | 76.7% | CCCc1cc(C(=O)N(C2CCCCC2)C2CCCCC2)no1
100% | 100% | CCCc1nc2c(=O)n(C)c(=O)nc-2n(C)n1
81.6% | 88.1% | COc1ccccc1N(/N=C1\Sc2ccccc2C1=O)C(C)=O
91.6% | 100% | O=C(CCNS(=O)(=O)c1cccc2nsnc12)N1CCN(c2ccccn2)CC1
59.9% | 100% | CCOc1ccc(-c2nc(-c3ccncc3)no2)cc1OCC
98.8% | 100% | O=C(O)c1ccccc1OCc1ccccc1Br
100% | 100% | CCCn1ncc(CN2CCCC(C(=O)c3cccc(OC(C)C)c3)C2)c1C (stereo not given)
21.9% | 90.2% | O=C1CCCC2=C1C1(CCCC1)N=C(Nc1nc3ccccc3o1)N2
31.9% | – | Cn1cnc([N+](=O)[O-])c1Sc1ncnc2nc[nH]c12
72.3% | 80.8% | COc1ccc(S(=O)(=O)N2CCN(S(=O)(=O)c3ccc4c(c3)OCCO4)CC2)cc1
14.5% | 62.9% | O=C(O)c1ccc(N2C(=O)/C(=C/c3ccc(-c4ccc([N+](=O)[O-])cc4)o3)C=C2c2ccccc2)cc1

stability | stability [1] | SMILES
96.1% | 100% | O=[N+]([O-])c1ccc(CN2CCOCCOCCN(Cc3ccc([N+](=O)[O-])cc3)CCOCC2)cc1
75.8% | 94.6% | CN(C)c1nc(N)nc(CSc2nnnn2-c2cccc3ccccc23)n1
93.9% | 97.5% | O=C(c1ccccn1)N(Cc1cccs1)C1(C(=O)NC2CCCCC2)CCCCC1
0.38% | 68.9% | Brc1cc2c(cc1C1Nc3ccccc3C3C=CCC31)OCO2 (stereo not given)
20.4% | 86.7% | Cc1cc2c(s1)c1cnn(Cc3ccccc3F)c(=O)c1n2C
90.3% | 100% | Cc1ccc(C)c(OCCn2cc(C(=O)O)c3ccccc32)c1
0.45% | 96.5% | CSc1nc(-c2ccc(C)cc2)nc(C(Cl)Cl)n1
34.6% | 98% | Cc1ccc(C)c(NS(=O)(=O)c2cc(C(=O)Nc3ccccc3-c3ccccc3)ccc2Cl)c1
79.5% | 86.7% | CCCC(=O)Nc1cccc(NC(=O)c2ccccc2Br)c1
100% | 100% | CCc1oc2ccccc2c1C(=O)c1cc(Br)c(O)c(Br)c1
56.1% | 94.6% | CCOC(=O)C(C)Oc1cccc2c(=O)n(CC(=O)Nc3ccc4c(c3)OCCO4)ccc12 (stereo not given)
82.6% | 100% | C=CCn1c(SCC(=O)c2ccc(O)c(O)c2)nnc1-c1ccccc1OC
93.8% | 100% | Cc1ccnc(NC(=O)CCCOc2cc(=O)n(C)c3ccccc23)c1
100% | 100% | O=C(CSc1cccc2cccnc12)N1CCCC1
81.4% | 98.2% | Cc1ccc(-n2c(N)c(C#N)c(-c3ccccc3)c(C#N)c2=O)cc1
92.9% | 100% | CC(C)C(=O)NC(c1ccco1)c1ccc2cccnc2c1O (stereo not given)
74.2% | 84.7% | Cc1nc(SCc2nc3ccccc3[nH]2)c2oc3ccccc3c2n1
57.4% | 100% | c1ccc(-c2nnc(N3CCOCC3)nc2-c2ccccc2)cc1
75% | 89.4% | O=S(=O)(NC1CCCCC1N1CCOCC1)c1ccc(Cl)cc1 (stereo not given)
9.08% | 100% | CN(C)c1oc(-c2ccc(OCc3ccc(Cl)cc3)cc2)nc1C#N
88.5% | 99.8% | COc1ccc(CSc2nc(C)cc(=O)[nH]2)cc1
81.5% | 90.4% | COc1cccc(-c2nc(-c3ccc(NC(=O)Cc4ccccc4OC)cc3)no2)c1
97.8% | 98.8% | Cc1ccc(S(=O)(=O)n2c(N)nc3ccccc32)cc1
58.2% | 90.9% | COc1ccc(C2CC(c3ccccc3)=NN2c2ccc(S(N)(=O)=O)cc2)cc1 (stereo not given)
10.1% | 98.9% | COc1nc(-c2ccccc2)nnc1-c1ccccc1
71.8% | 100% | COc1ccc(N(C(=O)CCl)C(C(=O)NCCc2ccccc2)c2cccs2)cc1Cl (stereo not given)

stability | stability [1] | SMILES
11.1% | 91.8% | COc1ccc(S(=O)(=O)n2nc(OC(=O)c3ccccc3)cc2N)cc1
98.3% | 100% | O=c1[nH]c(SCc2ccc(Cl)cc2)nc2c1CCC2
100% | 100% | CC1CCCN(C(C(=O)Nc2ccc3c(c2)OCCO3)c2ccccc2)C1 (stereo not given)
84.2% | 100% | c1ccc2c(Nc3nnc(-c4ccncc4)s3)cccc2c1
73% | 85.4% | Cc1cc(C(=O)CN2C(=O)CCC2=O)c(C)n1Cc1ccccc1
91.3% | 94.9% | O=S1(=O)Nc2c(ccc3cccnc23)-c2ccccc21
23.6% | 90% | CC[C@H]1CN2CCc3cc(OC)c(OC)cc3[C@@H]2C[C@@H]1C[C@H]1NCCc2cc(OC)c(OC)cc21
60.5% | 55.9% | N#Cc1ccccc1CSc1nc2ncc(Br)cc2[nH]1
52.4% | 100% | N#C/C(=C\c1ccc([N+](=O)[O-])o1)c1nc2ccccc2[nH]1
6.42% | 93.2% | c1ccc(CC2CCN(c3ncnc4sccc34)CC2)cc1
85% | 95.1% | Cn1nnnc1Sc1ncnc2scc(-c3ccccc3)c12
50.6% | 100% | COc1ccc(CNCc2cccc3ccccc23)cc1
12.8% | 100% | CS(=O)(=O)c1ccc(C(=O)OCC(=O)NC23CC4CC(CC(C4)C2)C3)cc1[N+](=O)[O-]
100% | 100% | Cc1cc(-c2nnc3n2CCCCC3)c(C)n1-c1ccccc1
100% | 100% | O=C1NCCCc2c1oc1ccc(O)cc21
68.5% | 100% | Cc1ccc(NS(=O)(=O)c2ccc3c(c2)CCC(=O)N3)cc1C
55% | 66.5% | O=c1[nH]c2c(s1)C(c1cccnc1)C1C3CCC(C3)C1S2 (stereo not given)
77.2% | 74.6% | Cc1ccc(C(=O)n2c3ccccc3c3ccccc32)cc1
50.8% | 100% | O=C1C2CC=CCC2C(=O)N1c1n[nH]c(-c2ccccc2)n1 (stereo not given)
56% | 100% | Cc1cc(C)nc(-n2nc(C)c(Sc3ccc(F)cc3)c2N)n1
96.5% | 100% | O=C(O)c1cccnc1SCCc1ccccc1
15.1% | 96.7% | Cc1ccc(N2CCN(S(=O)(=O)N3CCCCC3)CC2)c(C)c1
11.2% | 93.4% | COC(=O)c1ccccc1NC(=O)c1ccc(F)cc1
99.4% | 100% | CCCN(CCC)CCNC(=O)C1CCN(Cc2nc(-c3ccc(Cl)cc3)oc2C)CC1
76.7% | 85.6% | COc1ccc(C2c3c(ncn(CCN4CCOCC4)c3=N)Oc3ccc4ccccc4c32)cc1OC (stereo not given)
83.8% | 99.3% | Cc1ccc(S(=O)(=O)C(c2ccccc2)c2c(C)noc2C)cc1 (stereo not given)
